Molecular target: T1, dihydrofolate reductase (DHFR) (Escherichia coli, UniProt P0ABQ4, C152S/C85A)
T1 construct: gene folA
T1 sequence (P0ABQ4 1-159 C85A/C152S): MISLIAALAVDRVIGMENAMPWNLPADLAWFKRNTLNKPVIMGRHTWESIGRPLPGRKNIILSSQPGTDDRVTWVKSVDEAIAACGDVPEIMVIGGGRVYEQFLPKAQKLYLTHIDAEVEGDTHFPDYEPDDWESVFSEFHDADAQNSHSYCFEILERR
Assay: spectrophotometric DHFR activity assay ([…] nm) with in-house purified E. coli DHFR, triplicates
Format: biochemical

COc1cc(Cc2cnc(N)nc2N)cc(OC)c1OCc1cc(Cl)c(/N=N\c2c(Cl)cccc2Cl)c(Cl)c1 [TCATa]
IC50: 3.3 ± 2.1 nM

COc1cc(Cc2cnc(N)nc2N)cc(OC)c1OCc1cc(Cl)c(/N=N/c2c(Cl)cccc2Cl)c(Cl)c1 [TCATd]
IC50: 3.8 ± 1.4 nM
